From patent publication US10172355B2, “Safened herbicidal compositions including 4-amino-3-chloro-5-fluoro-6-(4-chloro-2-fluoro-3-methoxyphenyl)pyridine-2-carboxylic acid or a derivative thereof for use in rice” (Dow AgroSciences LLC, priority 2012, dated 2019)

How the values were obtained:
Type in all cases: in vivo
ORYSA=Orysa sativa, Rice [1] = test: Postemergence foliar-applied herbicides and safeners in direct-seeded rice, visual injury; conditions: foliar; for Visual Injury (%) - 21 DAA ORYSA-‘Clearfield 171’ Obs / Visual Injury (%) - 21 DAA ORYSA-‘Neptune’ Obs / Visual Injury (%) - 21 DAA ORYSA-‘Wells’ Obs: Tables 1,2,7,8
Text: (§1) Seeds or nutlets of the desired test plant species were planted in a soil matrix prepared by mixing a loam or sandy loam soil (e.g., 28.6 percent silt, 18.8 percent clay, and 52.6 percent sand, with a pH of about 5.8 and an organic matter content of about 1.8 percent) and calcareous grit in an 80 to 20 ratio. The soil matrix was contained in plastic pots with a surface area of 84.6 square centimeters (cm^2). When required to ensure good germination and healthy plants, a fungicide treatment and/or other chemical or physical treatment was applied. The plants were grown for 8-22 days in a greenhouse with an approximate 14 hr photoperiod which was maintained at about 29° C. during the day and 26° C. during the night. Nutrients (Peters Excel 15-5-15 5-Ca 2-Mg and iron chelate) were applied in the irrigation solution as needed and water was added on a regular basis. Supplemental lighting was provided with overhead metal halide 1000-Watt lamps as necessary. The plants were employed for testing when they reached the second or third true leaf stage.
(§2) Treatments consisted of the acid or esters of 4-amino-3-chloro-5-fluoro-6-(4-chloro-2-fluoro-3-methoxy-phenyl)pyridine-2-carboxylic acid (compound A) and various safener components alone and in combination. Forms of compound A were applied on an acid equivalent basis. Safener components were applied on an active ingredient or acid equivalent basis depending on the compound.
(§3) Treatment requirements were calculated based upon the rates being tested, the concentration of active ingredient or acid equivalent in the formulation, and a 12 mL application volume at a rate of 187 L/ha.
(§4) For treatments comprised of formulated compounds, measured amounts of compounds were placed individually in 25 mL glass vials and diluted in a volume of 1.25% (v/v) Agri-dex crop oil concentrated to obtain 12× stock solutions. […] Application solutions were prepared by adding an appropriate amount of each stock solution (e.g., 1 mL) and diluted to the appropriate final concentrations with the addition of 10 mL of an aqueous mixture of 1.25% (v/v) Agri-dex crop oil concentrate so that the final spray solutions contained 1.25% (v/v) Agri-dex crop oil concentrate.
(§5) For treatments comprised of technical compounds, weighed amounts were placed individually in 25 mL glass vials and dissolved in a volume of 97:3 v/v acetone/DMSO to obtain 12× stock solutions. […] Application solutions were prepared by adding an appropriate amount of each stock solution (e.g., 1 mL) and diluted to the appropriate final concentrations with the addition of 10 mL of an aqueous mixture of 1.5% (v/v) Agri-dex crop oil concentrate so that the final spray solutions contained 1.25% (v/v) Agri-dex crop oil concentrate. When technical materials were used, the concentrated stock solutions were added to the spray solutions so that the final acetone and DMSO concentrations of the application solutions were […], respectively.
(§6) For treatments comprised of formulated and technical compounds, weighed amounts of the technical materials were placed individually in 25 mL glass vials and dissolved in a volume of 97:3 v/v acetone/DMSO to obtain 12× stock solutions, and measured amounts of the formulated compounds were placed individually in 25 mL glass vials and diluted in a volume of 1.5% (v/v) Agri-dex crop oil concentrate or water to obtain 12× stock solutions. […] Application solutions were prepared by adding an appropriate amount of each stock solution (e.g., 1 mL) and diluted to the appropriate final concentrations with the addition of an appropriate amount of an aqueous mixture of 1.5% (v/v) Agri-dex crop oil concentrate so that the final spray solutions contained 1.25% (v/v) Agri-dex crop oil concentrate. When required, additional water and/or 97:3 v/v acetone/DMSO was added to individual application solutions so that the final acetone and DMSO concentrations of the application solutions being compared were 8.1% and 0.25%, respectively. […]

ORYSA=Orysa sativa, Rice [2] = test: In-water applied herbicides and safeners in transplanted paddy rice, visual injury; conditions: in-water
Experimental: Weed seeds or nutlets of the desired test plant species were planted in puddled soil (mud) prepared by mixing a shredded, non-sterilized mineral soil (50.5 percent silt, 25.5 percent clay, and 24 percent sand, with a pH of about 7.6 and an organic matter content of about 2.9 percent) and water at a 1:1 volumetric ratio. The prepared mud was dispensed in 365 mL aliquots into 16-ounce (oz.) non-perforated plastic pots with a surface area of 86.59 square centimeters (cm^2) leaving a headspace of 3 centimeters (cm) in each pot. Rice seeds were planted in Sun Gro MetroMix® 306 planting mixture, which typically has a pH of 6.0 to 6.8 and an organic matter content of about 30 percent, in plastic plug trays. Seedlings at the second or third leaf stage of growth were transplanted into 860 mL of mud contained in 32-oz. non-perforated plastic pots with a surface area of 86.59 cm^2 4 days prior to herbicide application. The paddy was created by filling the headspace of the pots with 2.5 to 3 cm of water. When required to ensure good germination and healthy plants, a fungicide treatment and/or other chemical or physical treatment was applied. The plants were grown for 4-22 days in a greenhouse with an approximate 14 h photoperiod which was maintained at about 29′C during the day and about 26° C. during the night. Nutrients were added as Osmocote® (17:6:10, N:P:K+minor nutrients) at 2 g per 16-oz. pot and 4 g per 32-oz. pot. Water was added on a regular basis to maintain the paddy flood, and supplemental lighting was provided with overhead metal halide 1000-Watt lamps as necessary. The plants were employed for testing when they reached the second or third true leaf stage.
as §2, with “safeners” for “safener components”
Treatment requirements for each compound or herbicidal component were calculated based upon the rates being tested, the concentration of active ingredient or acid equivalent in the formulation, an application volume of 2 mL per component per pot, and an application area of 86.59 cm^2 per pot.
For formulated compounds, a measured amount was placed in an individual 100 or 200 mL glass vial and was dissolved in a volume of 1.25% (v/v) Agri-Dex® crop oil concentrate to obtain application solutions.
For technical grade compounds, a weighed amount can be placed in an individual 100 to 200 mL glass vial and dissolved in a volume of acetone to obtain concentrated stock solutions. […] The concentrated stock solutions obtained can be diluted with an equivalent volume of an aqueous mixture containing 2.5% (v/v) crop oil concentrate so that the final application solutions contain 1.25% (v/v) crop oil concentrate.
Applications were made by injecting with a pipetter appropriate amounts of the application solutions, individually and sequentially, into the aqueous layer of the paddy. Control plants were treated in the same manner with the solvent blank. Applications were made so that all treated plant material received the same concentrations of acetone and crop oil concentrate.
The treated plants and control plants were placed in a greenhouse as described above and water was added as needed to maintain a paddy flood. After approximately 3 weeks the condition of the test plants as compared with that of the untreated plants was determined visually and scored on a scale of 0 to 100 percent where 0 corresponds to no injury or growth inhibition and 100 corresponds to complete kill.
Colby's equation was used to determine the herbicidal effects expected from the mixtures (Colby, S. R. 1967. Calculation of the synergistic and antagonistic response of herbicide combinations. Weeds 15:20-22.). […]

[3] = system: ECHCG=Echinochloa crus-galli; test: Postemergence foliar-applied herbicides and safeners, visual injury of weed; conditions: Echinochloa crus-galli, foliar, 480 h, read-out: Visual Injury (%) - 20 DAA ECHCG Obs, foliar; Compound A form 140 g ae/ha alone; trial of Tables 5,9,11,13
Text: as §1, §2, §3, §4, §5, §6

| Structure (SMILES) | Visual Injury (%) - 21 DAA ORYSA-‘Clearfield 171’ Obs (ORYSA=Orysa sativa, Rice [1]; safener 70 g ai/ha alone) [%] | Visual Injury (%) - 21 DAA ORYSA-‘Neptune’ Obs (ORYSA=Orysa sativa, Rice [1]; safener 70 g ai/ha alone) [%] | Visual Injury (%) - 21 DAA ORYSA-‘Wells’ Obs (ORYSA=Orysa sativa, Rice [1]; safener 70 g ai/ha alone) [%] | Visual Injury (%) - 21 DAA ORYSA-‘Clearfield 171’ Obs (ORYSA=Orysa sativa, Rice [1]; safener 140 g ai/ha alone) [%] | Visual Injury (%) - 21 DAA ORYSA-‘Neptune’ Obs (ORYSA=Orysa sativa, Rice [1]; safener 140 g ai/ha alone) [%] | Visual Injury (%) - 21 DAA ORYSA-‘Wells’ Obs (ORYSA=Orysa sativa, Rice [1]; safener 140 g ai/ha alone) [%] | Visual Injury (%) - 21 DAA ORYSA-‘Neptune’ Obs (ORYSA=Orysa sativa, Rice [1]; safener 280 g ai/ha alone) [%] | Visual Injury (%) - 21 DAA ORYSA-‘Wells’ Obs (ORYSA=Orysa sativa, Rice [1]; safener 280 g ai/ha alone) [%] | Visual Injury (%) - 21 DAA ORYSA - ‘M202’ Obs (ORYSA=Orysa sativa, Rice [2]; safener 140 g ai/ha alone) [%] | Visual Injury (%) - 21 DAA ORYSA - ‘M202’ Obs (ORYSA=Orysa sativa, Rice [2]; safener 280 g ai/ha alone) [%] | Visual Injury (%) - 21 DAA ORYSA - ‘M202’ Obs (ORYSA=Orysa sativa, Rice [2]; safener 560 g ai/ha alone) [%] | Visual crop injury (%) at 140 g/ha (ORYSA=Orysa sativa, Rice [1]; Oryza sativa, 480 h, read-out: Visual Injury (%) - 20 DAA ORYSA-‘Clearfield 171’ Obs, foliar, Compound A form 140 g ae/ha alone, trial of Tables 5,9,11,13) [%] | Visual Injury (%) - 21 DAA ORYSA - ‘M202’ Obs (ORYSA=Orysa sativa, Rice [2]; Compound A form 140 g ae/ha alone) [%] | pest or weed control at 140 g/ha [3] [%] |
| --- | --- | --- | --- | --- | --- | --- | --- | --- | --- | --- | --- | --- | --- | --- |
| CCOC(=O)C1=NOC(c2ccccc2)(c2ccccc2)C1 [Isoxadifen-ethyl, ethyl 4,5-dihydro-5,5-diphenyl-3-isoxazole-carboxylate] | 0 | 0 | 0 | 0 | 0 | 0 | 0 | 0 | 0 | 0 | 0 |  |  |  |
| COC(=O)c1nc(-c2ccc(Cl)c(OC)c2F)c(F)c(N)c1Cl [Methyl] |  |  |  |  |  |  |  |  |  |  |  | 12 | 17.5 | 98 |
